The values below come from patent US6525188B2, “Nuclear retinoic acid co-receptor” (Karo Bio Ab, priority 1994, dated 2003).

The assay concerns RXR / OR-1 on a DR4-containing promoter. The experiment in a line: PAP reporter gene under DR4-containing promoter, transfected embryonal carcinoma P19 EC cells. Particulars: 100 nM 9-cis retinoic acid, 36 h, PAP activity. Background: In a reporter assay the amount or activity of a reporter protein is the signal.

Molecules are shown by their SMILES.

Method: Embryonal carcinoma P19 EC cells were cultured in Dulbecco's modified Eagle's medium supplemented with 10% foetal calf serum, nonessential amino acids, penicillin (100 units/ml) and streptomycin (100 mg/ml). […] Cells were plated in duplicate in 35 mm Petri dishes and transfected at 30% confluency, using lipofectin reagent (Bethesada Research Laboratories, USA) according to the recommendations of the supplier.
Transfections were repeated 6 times with different plasmid preparations and data from a representative experiment is presented here.
Since OR-1 and RXR formed a specific complex on the DR4 sequence in vitro, coexpression of OR-1 in embryonal carcinoma (EC) cells that express endogenous RXR was tested to determine whether it could affect the activity of a reporter gene under the control of a DR4-containing promoter.

Regarding `CC1=C(/C=C/C(C)=C\C=C\C(C)=C\C(=O)O)C(C)(C)CCC1` [9-cis retinoic acid], the “activation of RXR on a DR4-containing promoter” value (EC cells with endogenous RXR, OR-1 expressed) is reported as “activation”. For the same molecule, under “embryonal carcinoma (EC) cells with endogenous RXR, without OR-1 expression”, the “induction of RXR on a reporter containing DR4” value is given as “no induction”.
